Earlier results as cited in patent publication US20250161331A1, “ANTI-INFLAMMATORY DRUG-CANNABINOID-COMPRISING NANOEMULSIONS AND METHODS OF USING THE SAME” (SGN Nanopharma Inc., priority 2022, published 2025).
Like-named read-outs stand apart in the source and are kept apart here.

**Q.** For `C=C(C)[C@@H]1CCC(C)=C[C@H]1c1c(O)cc(CCCCC)cc1O` [CBD, Cannabidiol], which CBD concentrations decreased (cannabis oil formulations, same timeframe (3-7 days)) is on record?
**A.** Its CBD concentrations decreased is “up to 38%”.

**Q.** And the CBD concentrations decreased (solution as a tea, room temperature, 3-7 days)?
**A.** Its CBD concentrations decreased is ≤ 50%.
